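Growth conditions: 96-well plates. Treatment: test compound, 48 hours, 5 concentrations. Analysis: linear interpolation between bracketing concentrations; unreached endpoints set to highest concentration. The concentration for full growth arrest is given as TGI.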
What was measured:
Assay in all cases: NCI-60 cell line screen, 48 h
[1] = system: BT-549 breast
[2] = system: OVCAR-4 ovarian
[3] = system: SK-OV-3 ovarian
[4] = system: T-47D breast
[5] = system: NCI-H226 lung
[6] = system: NCI/ADR-RES ovarian
[7] = system: CCRF-CEM leukemia
[8] = system: MALME-3M melanoma
[9] = system: TK-10 renal
[10] = system: 786-0 renal
[11] = system: SK-MEL-28 melanoma
[12] = system: A549 NSCLC
[13] = system: MDA-MB-435
[14] = system: PC-3 prostate
[15] = system: OVCAR-5 ovarian
[16] = system: SNB-75 CNS
[17] = system: OVCAR-8 ovarian
[18] = system: SK-MEL-2 melanoma
[19] = system: M14 melanoma
[20] = system: MDA-N
[21] = system: U251 CNS
[22] = system: COLO 205 colon
[23] = system: HT29 colon
[24] = system: ACHN renal
[25] = system: HOP-62 NSCLC
[26] = system: SF-268 CNS
[27] = system: MDA-MB-231 breast
[28] = system: CAKI-1 renal
[29] = system: SNB-19 CNS
[30] = system: UO-31 renal
[31] = system: SK-MEL-5 melanoma
[32] = system: SN12C renal
[33] = system: NCI-H23 lung
[34] = system: EKVX NSCLC
[35] = system: HL-60(TB) leukemia
[36] = system: LOX IMVI melanoma
[37] = system: SF-295 CNS
[38] = system: NCI-H460 lung
[39] = system: SR leukemia
[40] = system: IGROV1 ovarian
[41] = system: NCI-H522 lung
[42] = system: UACC-62 melanoma
[43] = system: MOLT-4 leukemia
[44] = system: SF-539 CNS
[45] = system: HCT-116 colon
[46] = system: HOP-92 NSCLC
[47] = system: DU-145 prostate
[48] = system: RXF 393 renal
[49] = system: K-562 leukemia
[50] = system: HCC-2998 colon
[51] = system: OVCAR-3 ovarian
[52] = system: SW-620 colon
[53] = system: MCF7 breast
[54] = system: UACC-257 melanoma
[55] = system: RPMI-8226 leukemia
[56] = system: HS 578T breast
[57] = system: KM12 colon
[58] = system: HCT-15 colon
[59] = system: A498 renal

Measured: TGI

O=C(O)c1ccccc1CC1Cc2ccc3c(c2C1=O)CCC3 (centres undefined)
not listed: [59]
> 100 µM: all other assays above

CCn1c(-c2ccc(F)cc2)nc2c1C(=O)c1ccccc1C2=O
not listed: [18] | [28] | [30] | [36] | [59]
> 100 µM: all other assays above

C/C(=N\Oc1cc(Cl)ncn1)c1ccccn1
95.7 µM: [48]
39.4 µM: [41]
74.3 µM: [46]
72.1 µM: [50]
57.5 µM: [28]
67.9 µM: [38]
87.6 µM: [27]
92.7 µM: [33]
not listed: [10] | [35] | [58] | [59]
> 100 µM: all other assays above

C1=Nc2sc3c(c2C2=NCCN12)CCCC3
29 µM: [42]
44.9 µM: [48]
30.3 µM: [27]
32.1 µM: [17]
30.7 µM: [9] | [14]
30.5 µM: [45]
41.7 µM: [21]
32.3 µM: [51]
24.3 µM: [50]
31.3 µM: [57]
31.1 µM: [28]
51.8 µM: [56]
30 µM: [54]
28.2 µM: [36]
30.4 µM: [58]
32.4 µM: [38]
52.1 µM: [26]
36.4 µM: [43]
30.8 µM: [24] | [40]
43.3 µM: [55]
28.7 µM: [1]
35.9 µM: [15]
39.6 µM: [37]
34.1 µM: [10]
43.8 µM: [52]
34.9 µM: [16] | [29]
35.5 µM: [20]
32 µM: [34]
33.2 µM: [5]
30.9 µM: [41]
33.7 µM: [53]
20.7 µM: [18]
41 µM: [11] | [13]
39.9 µM: [4]
53.2 µM: [22]
> 100 µM: [39] | [49]
32.9 µM: [8]
34.6 µM: [6]
36.5 µM: [35]
46.6 µM: [59]
29.3 µM: [33]
37.2 µM: [25]
30.1 µM: [30] | [47]
34.3 µM: [31]
32.8 µM: [23]
42.1 µM: [2]

Reference: PubChem BioAssay (NCI)
